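Briefly, cells in 96-well plates were exposed to five compound concentrations for 48 h, and endpoints were estimated by linear interpolation. GI50 is the concentration that inhibits growth by half.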 The source made the active and inactive calls. Cut-off read from the data, not from the text of the source: active = GI50 up to about 1.1 µM and inactive = higher.
What was measured:
Assay in all cases: NCI-60 cell line screen, 48 h
[1] = system: 786-0
[2] = system: CCRF-CEM
[3] = system: COLO 205
[4] = system: HCT-15
[5] = system: HOP-92
[6] = system: Hs-578T
[7] = system: IGROV-1
[8] = system: KM12
[9] = system: M14
[10] = system: MDA-N
[11] = system: NCI-H226
[12] = system: NCI-H23
[13] = system: OVCAR-5
[14] = system: RPMI-8226
[15] = system: SF-539
[16] = system: SK-MEL-2
[17] = system: SR
[18] = system: SW-620
[19] = system: T47D
[20] = system: U-251

| Compound | GI50 [1] | GI50 [2] | GI50 [3] | GI50 [4] [µM] | GI50 [5] | GI50 [6] | GI50 [7] | GI50 [8] | GI50 [9] | GI50 [10] | GI50 [11] | GI50 [12] | GI50 [13] | GI50 [14] | GI50 [15] | GI50 [16] | GI50 [17] | GI50 [18] | GI50 [19] | GI50 [20] |
| --- | --- | --- | --- | --- | --- | --- | --- | --- | --- | --- | --- | --- | --- | --- | --- | --- | --- | --- | --- | --- |
| CCOP(=O)(OCC)/C(C#N)=C/c1cccn1C | > 100 µM (inactive) | 25.9 µM (inactive) | > 100 µM (inactive) | > 100 | > 100 µM (inactive) | > 100 µM (inactive) | > 100 µM (inactive) | > 100 µM (inactive) | > 100 µM (inactive) | > 100 µM (inactive) | > 100 µM (inactive) | > 100 µM (inactive) | > 100 µM (inactive) | > 100 µM (inactive) | > 100 µM (inactive) | > 100 µM (inactive) | > 100 µM (inactive) | > 100 µM (inactive) | > 100 µM (inactive) | > 100 µM (inactive) |
| CCCCCCCC/C=C1\CCC(CN2CCOCC2)C1=O (stereo not drawn) | 1.68 µM (inactive) | 2.79 µM (inactive) | 5.77 µM (inactive) | 3.09 | 16.6 µM (inactive) | 4.36 µM (inactive) | 7.35 µM (inactive) | 3.41 µM (inactive) | 5.37 µM (inactive) | 9.55 µM (inactive) | 17.4 µM (inactive) | 10.2 µM (inactive) | 20.4 µM (inactive) | 0.551 µM (active) | 7.74 µM (inactive) | 14.8 µM (inactive) | 2.13 µM (inactive) | 2.7 µM (inactive) | 1.85 µM (inactive) | 14.8 µM (inactive) |
| O=S(=O)(Nc1nc2ccccc2nc1Nc1ccc2ccccc2c1)c1ccccc1 | 20.3 µM (inactive) | 20 µM (inactive) | 12.4 µM (inactive) | 11.1 | 5.06 µM (inactive) | 14.3 µM (inactive) | 9.59 µM (inactive) | 6 µM (inactive) | 9.04 µM (inactive) | 19.5 µM (inactive) | 16.7 µM (inactive) | 6.89 µM (inactive) | 26.4 µM (inactive) | 2.44 µM (inactive) | 15.3 µM (inactive) | 3.19 µM (inactive) | 13.2 µM (inactive) | 7.38 µM (inactive) | 5.68 µM (inactive) | 5.78 µM (inactive) |
| CC(=O)NC1=CC(=O)C=C(Cl)C1=O | > 100 µM (inactive) | 22.9 µM (inactive) | 39.3 µM (inactive) | > 100 | > 100 µM (inactive) | > 100 µM (inactive) | > 100 µM (inactive) | > 100 µM (inactive) | 42.3 µM (inactive) | 16.8 µM (inactive) | > 100 µM (inactive) | 43.9 µM (inactive) | > 100 µM (inactive) | 22.6 µM (inactive) | > 100 µM (inactive) | 59.8 µM (inactive) | 22.4 µM (inactive) | 19 µM (inactive) | > 100 µM (inactive) | > 100 µM (inactive) |
| Cn1ncc(NCCn2cnc3c2c(=O)n(C)c(=O)n3C)c(Cl)c1=O | > 100 µM (inactive) | > 100 µM (inactive) | > 100 µM (inactive) | > 100 | > 100 µM (inactive) | > 100 µM (inactive) | > 100 µM (inactive) | > 100 µM (inactive) | > 100 µM (inactive) | > 100 µM (inactive) | > 100 µM (inactive) | > 100 µM (inactive) | > 100 µM (inactive) | > 100 µM (inactive) | > 100 µM (inactive) | > 100 µM (inactive) | > 100 µM (inactive) | > 100 µM (inactive) | > 100 µM (inactive) | > 100 µM (inactive) |
| CCC1CC(=O)N(SCC(N)C(=O)O)C1=O (stereo not drawn) | > 100 µM (inactive) | > 100 µM (inactive) | > 100 µM (inactive) | > 100 | > 100 µM (inactive) | > 100 µM (inactive) | > 100 µM (inactive) | > 100 µM (inactive) | > 100 µM (inactive) | > 100 µM (inactive) | > 100 µM (inactive) | > 100 µM (inactive) | > 100 µM (inactive) | > 100 µM (inactive) | > 100 µM (inactive) | > 100 µM (inactive) | > 100 µM (inactive) | > 100 µM (inactive) | > 100 µM (inactive) | > 100 µM (inactive) |
| C[C@@H]1[C@@H](C)C(c2ccccc2)O[Si]1(C(C)(C)C)C(C)(C)C (stereo partly drawn) | 16 µM (inactive) | 18.9 µM (inactive) | 15.7 µM (inactive) | 23.1 | 21.5 µM (inactive) | 20.9 µM (inactive) | 16.7 µM (inactive) | 16.3 µM (inactive) | 18.2 µM (inactive) | 22.5 µM (inactive) | 18.1 µM (inactive) | 15.6 µM (inactive) | 17.6 µM (inactive) | 20.6 µM (inactive) | 17 µM (inactive) | 15.8 µM (inactive) | 11.8 µM (inactive) | 18.8 µM (inactive) | 19.1 µM (inactive) | 17 µM (inactive) |
| Cc1ccc(/C=N/n2c(=O)[nH]c3ccccc3c2=O)cc1 | > 100 µM (inactive) | > 100 µM (inactive) | > 100 µM (inactive) | > 100 | > 100 µM (inactive) | > 100 µM (inactive) | > 100 µM (inactive) | > 100 µM (inactive) | > 100 µM (inactive) | > 100 µM (inactive) | > 100 µM (inactive) | > 100 µM (inactive) | > 100 µM (inactive) | > 100 µM (inactive) | > 100 µM (inactive) | > 100 µM (inactive) | > 100 µM (inactive) | > 100 µM (inactive) | > 100 µM (inactive) | > 100 µM (inactive) |
| CCOC(=O)c1c(N2CCCC2)ncn(-c2ccccc2)c1=S | > 100 µM (inactive) | > 100 µM (inactive) | > 100 µM (inactive) | > 100 | > 100 µM (inactive) | > 100 µM (inactive) | > 100 µM (inactive) | > 100 µM (inactive) | > 100 µM (inactive) | > 100 µM (inactive) | > 100 µM (inactive) |  | > 100 µM (inactive) | > 100 µM (inactive) | > 100 µM (inactive) | > 100 µM (inactive) | > 100 µM (inactive) | > 100 µM (inactive) | > 100 µM (inactive) | > 100 µM (inactive) |
| OC(c1cc(C(O)(C(F)(F)F)C(F)(F)F)ncn1)(C(F)(F)F)C(F)(F)F | > 10 µM (inactive) | > 10 µM (inactive) | > 10 µM (inactive) | > 10 | > 10 µM (inactive) | > 10 µM (inactive) | > 10 µM (inactive) | > 10 µM (inactive) | > 10 µM (inactive) | > 10 µM (inactive) | > 10 µM (inactive) | > 10 µM (inactive) |  | > 10 µM (inactive) | > 10 µM (inactive) | > 10 µM (inactive) | > 10 µM (inactive) | > 10 µM (inactive) | > 10 µM (inactive) | > 10 µM (inactive) |

Source: ChEMBL document CHEMBL1201862, “PubChem BioAssay data set” (2004)
